Reference: patent publication EP4439067A1, “METHOD FOR IDENTIFYING REACTIVE OXYGEN SPECIES” (Centre National de la Recherche Scientifique, priority 2023, dated 2024)

What was measured:
HeLa cells [1] = assay: Oxygen consumption rates (OCR), Seahorse XF24 flux analyser; type: cell-based, human; details: for effect on OCR / mitochondrial respiration: rotenone 1 µM plus antimycin A 1 µM, siOPA1- and siCtrl-transfected cells; for oxygen consumption due to mitochondrial respiration: shown by rotenone plus antimycin, both siOPA1- and siCtrl-transfected cells
Excerpt: (§1) The inventors assessed oxygen consumption rates (OCR), a direct measure of oxidative phosphorylation activity, and extracellular acidification rates (ECAR), representative of glycolysis, since it accounts for approximately 80% of acidification (Wu et al., 2007, Xie et al., 2009), using the Seahorse XF24 flux analyser (Seahorse Bioscience Inc, North Billerica, MA, USA). Basal respiration was 38% lower in siOPA1-transfected HeLa cells than siCtrl-treated cells (Figure 1). Furthermore, ATP-linked respiration measured in the presence of oligomycin, which inhibits ATP synthase, was reduced by 40%. The maximal OCR measured in the presence of the protonophore FCCP, which uncouples oxidation and phosphorylation, was reduced by 58%. […] Indeed, citrate synthase activity and quantity and HSP60, VDAC, and TOM20 levels were unchanged (Figures 18 and 19).
Oxygen consumption rates (OCR) and extracellular acidification rates (ECAR) were measured using the XF24 Extracellular Flux Analyser (Seahorse Bioscience, North Billerica, MA). HeLa cells (15.103) transfected with siCtrl or siOPA1 were plated on XF24 microplates three days before OCR measurements. Dual-analyte sensor cartridges were soaked in XF Calibrant Solution (Seahorse Biosciences) in 24-well cell-culture microplates overnight at 37°C to hydrate. Approximately one hour prior to experimentation, injection ports on the sensor cartridge were filled with oligomycin (1 µM), Carbonyl cyanide 4-(trifluoromethoxy) phenylhydrazone (FCCP) (1 µM), and rotenone (1 µM) plus antimycin A (1 µM). Plates were then loaded into the XF24 instrument for calibration. For measuring oxygen consumption, the DMEM growth media of HeLa cells was replaced by DMEM supplemented with NaCl (143 mM), Phenol Red (3 mg/ml), glucose (10 mM), glutamine (2 mM), and pyruvate (2 mM) at pH 7.4, and the plates maintained at 37°C 1 h prior to experimentation. Plates were then loaded into the Seahorse XF24 analyser following the manufacturer's instructions.

HeLa cells [2] = assay: Extracellular acidification rates (ECAR), Seahorse XF24 flux analyser; type: cell-based, human; details: 1 µM, both siCtrl- and siOPA1-transfected cells
Excerpt: as §1
Oxygen consumption rates (OCR) and extracellular acidification rates (ECAR) were measured using the XF24 Extracellular Flux Analyser (Seahorse Bioscience, North Billerica, MA). HeLa cells (15.103) transfected with siCtrl or siOPA1 were plated on XF24 microplates three days before OCR measurements. Dual-analyte sensor cartridges were soaked in XF Calibrant Solution (Seahorse Biosciences) in 24-well cell-culture microplates overnight at 37°C to hydrate. […]

Compound: C=C(C)[C@H]1Cc2c(ccc3c2O[C@@H]2COc4cc(OC)c(OC)cc4[C@@H]2C3=O)O1 [rotenone]
- effect on OCR / mitochondrial respiration (HeLa cells [1]): inhibited mitochondrial respiration
- effect on OCR / mitochondrial respiration (HeLa cells [1]; listed as Rotenone): considerably decreased
- oxygen consumption due to mitochondrial respiration (HeLa cells [1]): more than 95%

Compound: antimycin A
- effect on OCR / mitochondrial respiration (HeLa cells [1]): inhibited mitochondrial respiration
- effect on OCR / mitochondrial respiration (HeLa cells [1]; listed as antimycin): considerably decreased
- oxygen consumption due to mitochondrial respiration (HeLa cells [1]): more than 95%

Compound: CC[C@H]1/C=C/C=C/C[C@@H](C)[C@H](O)[C@@](C)(O)C(=O)[C@@H](C)[C@H](O)[C@@H](C)C(=O)[C@@H](C)[C@H](O)[C@@H](C)/C=C/C(=O)O[C@@H]2[C@H](C)[C@H](CC1)O[C@]1(CC[C@H](C)[C@H](C[C@@H](C)O)O1)[C@H]2C [oligomycin]
- effect of oligomycin injection on ECAR (HeLa cells [2]): increased
